These are literature values, as cited in patent publication US20030229057A1, “Continuous sulfatase inhibiting progestogen hormone replacement therapy” (priority 2002, published 2003).

The conditions of this series: humans.

For `C#C[C@]1(OC(C)=O)CC[C@H]2[C@@H]3CCC4=CC(=NO)CC[C@@H]4[C@H]3CC[C@@]21CC` (mixture of isomers) [norgestimate], the “norgestimate being converted to norelgestromin in vivo” value is listed as ≥ 80%.
